According to patent US9234885B2 (priority 2011, dated 2016):
Entries after “also recorded” stand apart in the source; their conditions may differ.

Assays:
rVSV-GP-EboV [1] = type: cell-based, Ebola virus
VSV [2] = type: cell-based, vesicular stomatitis virus
[3] = tested on: intracellular cholesterol; type: cell-based, grivet monkey
EBOV-Zaire 1995 = type: cell-based, Ebola virus
MARV-Ci67 = type: cell-based, Marburg virus
rVSV-GP-EboV [4] = type: cell-based, Ebola virus; remark: listed apart in the source
VSV [5] = type: cell-based, vesicular stomatitis virus; remark: listed apart in the source
[6] = tested on: human peripheral blood monocyte-derived dendritic cells and umbilical-vein endothelial cells (HUVEC)

Molecule | time after addition to cells until viral infection is inhibited (rVSV-GP-EboV [1]) [min] | viral infection mediated by EboV GP (rVSV-GP-EboV [1]) | viral infection by VSV (VSV [2]) | time until significant intracellular accumulation of cholesterol is observed [3] [h] | infection by authentic EboV, percentage of infected cells by immunostaining (EBOV-Zaire 1995) | viral yield, authentic EboV (EBOV-Zaire 1995) | infection by authentic MarV, percentage of infected cells by immunostaining (MARV-Ci67) | viral yield, authentic MarV (MARV-Ci67) | VSV M staining pattern after rVSV-GP-EboV (diffuse = fusion, punctate = block) (rVSV-GP-EboV [4]) | VSV M staining pattern after VSV (diffuse = fusion, punctate = block) (VSV [5]) | cell number or morphology [6]
CCN(CC)CCO[C@H]1CC[C@@]2(C)C(=CC[C@@H]3[C@@H]2CC[C@]2(C)C(=O)CC[C@@H]32)C1 [U18666A, 3-β-[2-(diethylamino)ethoxy]androst-5-en-17-one] | < 10 | potently inhibited | but not VSV | > 4 | greatly reduced; also recorded: blocks | Stark reductions | greatly reduced; also recorded: blocks | Stark reductions | only punctate M staining | Diffuse M staining | without affecting
bafilomycin A1 [bafA1] |  |  |  |  |  |  |  |  | discrete punctuate of M staining |  | 
CN(C)CCCN1c2ccccc2CCc2ccccc21 [imipramine] |  | potently inhibited | but not VSV |  | blocks | Stark reductions | blocks | Stark reductions |  |  | 
ammonium chloride [NH4Cl] |  |  |  |  |  |  |  |  | discrete punctuate of M staining |  | 
